Measurements taken from ChEMBL document CHEMBL5523691, “SAR study of N'-(Salicylidene)heteroarenecarbohydrazides as promising antifungal agents” (Bioorg Med Chem, 2024).
Converted amounts (≈) assume the structure as drawn. The source made the active and inactive calls. The calls are words filed in the database; no cut-off is given here.

How the values were obtained:
Cryptococcus neoformans [1] = assay: Antifungal activity against wild type Cryptococcus neoformans H99 assessed as inhibition of fungal growth incubated for 24 to 72 hrs by optical density based analysis; assay type: functional; conditions: time 24-72 hrs
Cryptococcus neoformans [2] = assay: Fungicidal activity against wild type Cryptococcus neoformans H99 assessed as minimum concentration required to kill fungus measured after 48 hrs by time-kill assay; assay type: functional
[3] = Cytotoxicity against human A549 cells assessed as cell killing measured after 24 to 48 hrs by MTT assay; assay type: toxicity, cell-based; conditions: time 24-48 hrs, read-out: LD50 (the source's name)
[4] = Selectivity index, ratio of LD50 for human A549 cells to MIC80 for Cryptococcus neoformans H99; assay type: toxicity; conditions: read-out: Selectivity Index
Candida albicans = assay: Antifungal activity against Candida albicans assessed as inhibition of fungal growth incubated for 24 to 72 hrs by optical density based analysis; assay type: functional; conditions: time 24-72 hrs
Cryptococcus neoformans [5] = assay: Fungistatic activity against wild type Cryptococcus neoformans H99 assessed as inhibition of fungal growth incubated for 12 to 48 hrs by time-kill assay; assay type: functional, organism-based; conditions: time 12-48 hrs
Aspergillus fumigatus = assay: Antifungal activity against Aspergillus fumigatus assessed as inhibition of fungal growth incubated for 24 to 72 hrs by optical density based analysis; assay type: functional; conditions: time 24-72 hrs
Cryptococcus neoformans [6] = assay: Fungicidal activity against wild type Cryptococcus neoformans H99 assessed as minimum concentration required to kill fungus measured after 24 hrs by time-kill assay; assay type: functional
Cryptococcus neoformans [7] = assay: Antagonistic antifungal activity against wild type Cryptococcus neoformans H99 in presence of caspofungin; assay type: functional, organism-based
Cryptococcus neoformans [8] = assay: Synergistic antifungal activity against wild type Cryptococcus neoformans H99 assessed as fractional inhibitory concentration index in presence of fluconazole; assay type: functional
Cryptococcus neoformans [9] = assay: Antifungal activity against wild type Cryptococcus neoformans H99 assessed as inhibition of fungal growth in presence of caspofungin; assay type: functional
Cryptococcus neoformans [10] = assay: Antifungal activity against wild type Cryptococcus neoformans H99 assessed as inhibition of fungal growth in presence of fluconazole; assay type: functional
Cryptococcus neoformans [11] = assay: Synergistic antifungal activity against wild type Cryptococcus neoformans H99 assessed as fractional inhibitory concentration index in presence of caspofungin; assay type: functional
Cryptococcus neoformans [12] = assay: Synergistic antifungal activity against wild type Cryptococcus neoformans H99 assessed as fractional inhibitory concentration index in presence of amphotericin B; assay type: functional
Cryptococcus neoformans [13] = assay: Antagonistic antifungal activity against wild type Cryptococcus neoformans H99 in presence of amphotericin B; assay type: functional, organism-based
Cryptococcus neoformans [14] = assay: Antagonistic antifungal activity against wild type Cryptococcus neoformans H99 in presence of fluconazole; assay type: functional, organism-based
Cryptococcus neoformans [15] = assay: Antifungal activity against wild type Cryptococcus neoformans H99 assessed as inhibition of fungal growth in presence of amphotericin B; assay type: functional

MIC80 (Cryptococcus neoformans [1]) [µg/mL] | Structure (SMILES) | CC50 [3] [µg/mL] | selectivity ratio [4] | further results
2 (≈ 4.39 µM) | O=C(N/N=C/c1cc(Br)cc(Br)c1O)c1ccc(C(F)(F)F)o1 | – | – | –
> 16 | Cc1ccc2c(C)c(C(=O)N/N=C/c3cc(Br)cc(Br)c3O)oc2c1 | – | – | –
2 (≈ 5.17 µM) | O=C(N/N=C/c1cc(Br)cc(Br)c1O)c1cc[nH]c1 | – | – | –
> 16 | O=C(N/N=C/c1cc(Br)ccc1O)c1cc2cc(Br)ccc2o1 | – | – | –
0.25 (≈ 0.522 µM) | O=C(N/N=C/c1cc(Br)cc(Br)c1O)c1ncc(Br)cn1 | – | – | Activity (Cryptococcus neoformans [5]): Active
> 16 | O=C(N/N=C/c1cc(Br)ccc1O)c1cc2cc(Br)ccc2cn1 | – | – | –
> 16 | O=C(N/N=C/c1cc(Br)ccc1O)c1cc(Br)c[nH]1 | – | – | –
2 (≈ 6.47 µM) | O=C(N/N=C/c1ccc(Br)cc1O)c1ccco1 | – | – | –
2 (≈ 5.39 µM) | O=C(N/N=C/c1c(O)ccc2ccccc12)c1ncc(Br)cn1 | – | – | –
> 16 | O=C(N/N=C/c1cc(Br)ccc1O)c1ncc(Br)cn1 | – | – | –
8 (≈ 20.6 µM) | O=C(N/N=C/c1cc(Br)cc(Br)c1O)c1ccco1 | – | – | –
> 16 | O=C(N/N=C/c1cc(Br)cc(Br)c1O)c1cc2ccccc2cn1 | – | – | –
> 16 | O=C(N/N=C/c1cc(Br)cc(Br)c1O)c1cncc(Br)c1 | – | – | –
2 (≈ 5.17 µM) | O=C(N/N=C/c1cc(Br)cc(Br)c1O)c1ccc[nH]1 | – | – | –
4 (≈ 10.3 µM) | O=C(N/N=C/c1cc(Br)cc(Br)c1O)c1cc[nH]n1 | – | – | –
> 16 | O=C(N/N=C/c1c(O)ccc2ccccc12)c1cc(Br)co1 | – | – | –
> 16 | O=C(N/N=C/c1cc(Br)cc(Br)c1O)c1cc2cc(Br)ccc2o1 | – | – | –
> 16 | O=C(N/N=C/c1cc(Br)cc(Br)c1O)c1cc2cc(Br)ccc2cn1 | – | – | –
> 16 | O=C(N/N=C/c1c(O)ccc2ccccc12)c1cc[nH]c1 | – | – | –
16 (≈ 35.2 µM) | O=C(N/N=C/c1c(O)ccc2ccccc12)c1cc(Br)c(Br)s1 | – | – | –
> 16 | O=C(N/N=C/c1cc(Br)cc(Br)c1O)c1csc2ccccc12 | – | – | –

Structure (SMILES) | MIC80 (Cryptococcus neoformans [1]) [µg/mL] | CC50 [3] [µg/mL] | selectivity ratio [4] | further results
O=C(N/N=C/c1cc(Br)cc(Br)c1O)c1ccc(C(F)(F)F)s1 | 0.06 (≈ 0.127 µM) | 1 (≈ 2.12 µM) | 16.6 | MFC100 (Cryptococcus neoformans [2]): 0.25 µg/mL (≈ 0.53 µM)
O=C(N/N=C/c1c(O)ccc2ccccc12)c1ccc(C(F)(F)F)o1 | 0.5 (≈ 1.44 µM) | 0.12 (≈ 0.345 µM) | 0.24 | MFC100 (Cryptococcus neoformans [2]): 2 µg/mL (≈ 5.74 µM)
CC[C@H](C)C[C@H](C)CCCCCCCCC(=O)N[C@H]1C[C@@H](O)[C@@H](NCCN)NC(=O)[C@@H]2[C@@H](O)CCN2C(=O)[C@H]([C@H](O)CCN)NC(=O)[C@H]([C@H](O)[C@@H](O)c2ccc(O)cc2)NC(=O)[C@@H]2C[C@@H](O)CN2C(=O)[C@H]([C@@H](C)O)NC1=O [CASPOFUNGIN] | > 32 | – | – | MIC80 (Candida albicans): 0.5 µg/mL (≈ 0.457 µM)
O=C(N/N=C/c1cc(Br)cc(Br)c1O)c1ccc(Br)o1 | 0.06 (≈ 0.129 µM) | 16 (≈ 34.3 µM) | 267 | Activity (Cryptococcus neoformans [5]): Active
O=C(N/N=C/c1ccc(Br)cc1O)c1cc(Br)c(Br)o1 | 0.06 (≈ 0.129 µM) | 16 (≈ 34.3 µM) | 267 | Activity (Cryptococcus neoformans [5]): Active
C[C@@H]1[C@H](O)[C@@H](C)/C=C/C=C/C=C/C=C/C=C/C=C/C=C/[C@H](O[C@@H]2O[C@H](C)[C@@H](O)[C@H](N)[C@@H]2O)C[C@@H]2O[C@](O)(C[C@@H](O)C[C@@H](O)[C@H](O)CC[C@@H](O)C[C@@H](O)CC(=O)O[C@H]1C)C[C@H](O)[C@H]2C(=O)O [AMPHOTERICIN B] | 0.5 (≈ 0.541 µM) | – | – | MIC80 (Aspergillus fumigatus): 1 µg/mL (≈ 1.08 µM)
O=C(N/N=C/c1ccc(Br)cc1O)c1ccc(C(F)(F)F)s1 | 0.06 (≈ 0.153 µM) | 0.5 (≈ 1.27 µM) | 8.3 | MFC100 (Cryptococcus neoformans [6]): 0.5 µg/mL (≈ 1.27 µM)
O=C(N/N=C/c1cc(Br)cc(Br)c1O)c1cc(Br)co1 | 0.06 (≈ 0.129 µM) | 16 (≈ 34.3 µM) | 267 | Activity (Cryptococcus neoformans [5]): Active
O=C(N/N=C/c1ccc(Br)cc1O)c1csc(Br)c1 | 0.25 (≈ 0.619 µM) | > 32 | > 128 | MFC100 (Cryptococcus neoformans [6]): 0.5 µg/mL (≈ 1.24 µM)
O=C(N/N=C/c1ccc(Br)cc1O)c1ccc(Br)o1 | 0.12 (≈ 0.309 µM) | > 32 | > 533 | Activity (Cryptococcus neoformans [7]): inactive; fractional inhibitory concentration index (FICI) (Cryptococcus neoformans [8]): 0.25; MIC80 (Cryptococcus neoformans [9]): 0.015 µg/mL; MFC100 (Cryptococcus neoformans [6]): 0.5 µg/mL (≈ 1.29 µM); MIC80 (Cryptococcus neoformans [10]): 0.015 µg/mL; fractional inhibitory concentration index (FICI) (Cryptococcus neoformans [11]): 0.37; fractional inhibitory concentration index (FICI) (Cryptococcus neoformans [12]): 0.53; Activity (Cryptococcus neoformans [13]): inactive; Activity (Cryptococcus neoformans [14]): inactive; MIC80 (Cryptococcus neoformans [15]): 0.015 µg/mL; MIC80 (Candida albicans): 0.5 µg/mL (≈ 1.29 µM); MIC80 (Aspergillus fumigatus): 0.5 µg/mL (≈ 1.29 µM)
O=C(N/N=C/c1cc(Br)ccc1O)c1cc(Br)c(Br)s1 | 0.12 (≈ 0.248 µM) | 32 (≈ 66.3 µM) | 267 | MFC100 (Cryptococcus neoformans [6]): 0.25 µg/mL (≈ 0.518 µM)
O=C(N/N=C/c1c(O)ccc2ccccc12)c1ccc(C(F)(F)F)s1 | 0.007 (≈ 0.0192 µM) | 0.12 (≈ 0.329 µM) | 17.1 | MFC100 (Cryptococcus neoformans [6]): 0.25 µg/mL (≈ 0.686 µM)
O=C(N/N=C/c1c(O)ccc2ccccc12)c1csc(Br)c1 | 0.25 (≈ 0.666 µM) | > 32 | > 128 | MFC100 (Cryptococcus neoformans [2]): 0.25 µg/mL (≈ 0.666 µM)
